{
  "source": "the supplement of paper PMC10307832",
  "assay_in_all_cases": "relative viability (nuclei count vs DMSO), 5 days (fraction); higher = more cells survive",
  "key": {"[1]": {"test_system": "LK-2", "outline": "(§1)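 The day after seeding in 1536-well plates, lung cancer cell lines were treated by pin tool with a single drug, or with a fixed anchor-drug dose together with five library-drug doses (not always all listed) in √10 steps. After 5 days, a combined fix-and-stain solution (final 0.05% Triton X-100, 1% formaldehyde, 1 ug/ml Hoechst) was added. Nuclei counted on 4× images gave relative viability as treated counts over vehicle counts, reported as the median of duplicate plates.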"}, "[2]": {"test_system": "COR-L23", "outline": "as §1"}, "[3]": {"test_system": "NCI-H3122", "outline": "as §1"}, "[4]": {"test_system": "HARA", "outline": "as §1"}, "[5]": {"test_system": "NCI-H441", "outline": "as §1"}, "[6]": {"test_system": "CAL-12T", "outline": "as §1"}, "[7]": {"test_system": "NCI-H2009", "outline": "as §1"}, "[8]": {"test_system": "NCI-H2170", "outline": "as §1"}, "[9]": {"test_system": "NCI-H727", "outline": "as §1"}, "[10]": {"test_system": "HCC-366", "outline": "as §1"}, "[11]": {"test_system": "NCI-H1650", "outline": "as §1"}, "[12]": {"test_system": "BEN", "outline": "as §1"}, "[13]": {"test_system": "COR-L 105", "outline": "as §1"}, "[14]": {"test_system": "NCI-H661", "outline": "as §1"}, "[15]": {"test_system": "NCI-H1437", "outline": "as §1"}, "[16]": {"test_system": "LU99A", "outline": "as §1"}, "[17]": {"test_system": "NCI-H1666", "outline": "as §1"}, "[18]": {"test_system": "201T", "outline": "as §1"}, "[19]": {"test_system": "PC-14", "outline": "as §1"}, "[20]": {"test_system": "NCI-H2023", "outline": "as §1"}, "[21]": {"test_system": "EKVX", "outline": "as §1"}, "[22]": {"test_system": "ABC-1", "outline": "as §1"}, "[23]": {"test_system": "NCI-H838", "outline": "as §1"}},
  "data": [
    {"smiles": "C[C@@H]1CN(CC(=O)Nc2ccc3c(c2)Cc2cccc(-c4cc(=O)cc(N5CCOCC5)o4)c2S3)C[C@H](C)O1", "note": "+ CS(=O)(=O)N1CCN(Cc2cc3nc(-c4cccc5[nH]ncc45)nc(N4CCOCC4)c3s2)CC1 [Pictilisib] (partner 1 µM)", "values": [
      {"measurement": "relative viability", "setting": "[1]; first compound 0.1265 µM", "value": 0.634},
      {"measurement": "relative viability", "setting": "[1]; first compound 0.4 µM", "value": 0.607},
      {"measurement": "relative viability", "setting": "[1]; first compound 4 µM", "value": 0.667},
      {"measurement": "relative viability", "setting": "[2]; first compound 0.04 µM", "value": 0.854},
      {"measurement": "relative viability", "setting": "[2]; first compound 0.1265 µM", "value": 0.785},
      {"measurement": "relative viability", "setting": "[2]; first compound 0.4 µM", "value": 0.745},
      {"measurement": "relative viability", "setting": "[2]; first compound 4 µM", "value": 0.755},
      {"measurement": "relative viability", "setting": "[3]; first compound 0.04 µM", "value": 0.656},
      {"measurement": "relative viability", "setting": "[3]; first compound 0.1265 µM", "value": 0.532},
      {"measurement": "relative viability", "setting": "[3]; first compound 0.4 µM", "value": 0.513},
      {"measurement": "relative viability", "setting": "[3]; first compound 4 µM", "value": 0.472},
      {"measurement": "relative viability", "setting": "[4]; first compound 0.04 µM", "value": 0.383},
      {"measurement": "relative viability", "setting": "[4]; first compound 0.1265 µM", "value": 0.37},
      {"measurement": "relative viability", "setting": "[4]; first compound 0.4 µM", "value": 0.226},
      {"measurement": "relative viability", "setting": "[4]; first compound 4 µM", "value": 0.372},
      {"measurement": "relative viability", "setting": "[5]; first compound 0.04 µM", "value": 0.526},
      {"measurement": "relative viability", "setting": "[5]; first compound 0.1265 µM", "value": 0.447},
      {"measurement": "relative viability", "setting": "[5]; first compound 0.4 µM", "value": 0.43},
      {"measurement": "relative viability", "setting": "[5]; first compound 4 µM", "value": 0.372},
      {"measurement": "relative viability", "setting": "[6]; first compound 0.04 µM", "value": 0.396},
      {"measurement": "relative viability", "setting": "[6]; first compound 0.1265 µM", "value": 0.487},
      {"measurement": "relative viability", "setting": "[6]; first compound 0.4 µM", "value": 0.396},
      {"measurement": "relative viability", "setting": "[6]; first compound 4 µM", "value": 0.378},
      {"measurement": "relative viability", "setting": "[7]; first compound 0.04 µM", "value": 0.909},
      {"measurement": "relative viability", "setting": "[7]; first compound 0.1265 µM", "value": 0.84},
      {"measurement": "relative viability", "setting": "[7]; first compound 0.4 µM", "value": 0.816},
      {"measurement": "relative viability", "setting": "[7]; first compound 4 µM", "value": 0.588},
      {"measurement": "relative viability", "setting": "[8]; first compound 0.1265 µM", "value": 0.343},
      {"measurement": "relative viability", "setting": "[8]; first compound 0.4 µM", "value": 0.274},
      {"measurement": "relative viability", "setting": "[8]; first compound 4 µM", "value": 0.339},
      {"measurement": "relative viability", "setting": "[9]; first compound 0.04 µM", "value": 0.291},
      {"measurement": "relative viability", "setting": "[9]; first compound 0.1265 µM", "value": 0.421},
      {"measurement": "relative viability", "setting": "[9]; first compound 0.4 µM", "value": 0.252},
      {"measurement": "relative viability", "setting": "[9]; first compound 4 µM", "value": 0.385},
      {"measurement": "relative viability", "setting": "[10]; first compound 0.04 µM", "value": 0.151},
      {"measurement": "relative viability", "setting": "[10]; first compound 0.1265 µM", "value": 0.142},
      {"measurement": "relative viability", "setting": "[10]; first compound 0.4 µM", "value": 0.138},
      {"measurement": "relative viability", "setting": "[10]; first compound 4 µM", "value": 0.112},
      {"measurement": "relative viability", "setting": "[11]; first compound 0.04 µM", "value": 0.32},
      {"measurement": "relative viability", "setting": "[11]; first compound 0.1265 µM", "value": 0.605},
      {"measurement": "relative viability", "setting": "[11]; first compound 0.4 µM", "value": 0.651},
      {"measurement": "relative viability", "setting": "[11]; first compound 4 µM", "value": 0.621},
      {"measurement": "relative viability", "setting": "[12]; first compound 0.04 µM", "value": 0.556},
      {"measurement": "relative viability", "setting": "[12]; first compound 0.1265 µM", "value": 0.537},
      {"measurement": "relative viability", "setting": "[12]; first compound 0.4 µM", "value": 0.601},
      {"measurement": "relative viability", "setting": "[12]; first compound 4 µM", "value": 0.513},
      {"measurement": "relative viability", "setting": "[13]; first compound 0.04 µM", "value": 0.344},
      {"measurement": "relative viability", "setting": "[13]; first compound 0.1265 µM", "value": 0.402},
      {"measurement": "relative viability", "setting": "[13]; first compound 0.4 µM", "value": 0.375},
      {"measurement": "relative viability", "setting": "[13]; first compound 4 µM", "value": 0.414},
      {"measurement": "relative viability", "setting": "[14]; first compound 0.04 µM", "value": 0.408},
      {"measurement": "relative viability", "setting": "[14]; first compound 0.1265 µM", "value": 0.381},
      {"measurement": "relative viability", "setting": "[14]; first compound 0.4 µM", "value": 0.381},
      {"measurement": "relative viability", "setting": "[14]; first compound 4 µM", "value": 0.448},
      {"measurement": "relative viability", "setting": "[15]; first compound 0.04 µM", "value": 0.416},
      {"measurement": "relative viability", "setting": "[15]; first compound 0.1265 µM", "value": 0.45},
      {"measurement": "relative viability", "setting": "[15]; first compound 0.4 µM", "value": 0.339},
      {"measurement": "relative viability", "setting": "[15]; first compound 4 µM", "value": 0.477},
      {"measurement": "relative viability", "setting": "[16]; first compound 0.04 µM", "value": 0.313},
      {"measurement": "relative viability", "setting": "[16]; first compound 0.1265 µM", "value": 0.382},
      {"measurement": "relative viability", "setting": "[16]; first compound 0.4 µM", "value": 0.349},
      {"measurement": "relative viability", "setting": "[16]; first compound 4 µM", "value": 0.378},
      {"measurement": "relative viability", "setting": "[17]; first compound 0.04 µM", "value": 0.444},
      {"measurement": "relative viability", "setting": "[17]; first compound 0.1265 µM", "value": 0.298},
      {"measurement": "relative viability", "setting": "[17]; first compound 0.4 µM", "value": 0.439},
      {"measurement": "relative viability", "setting": "[17]; first compound 4 µM", "value": 0.29},
      {"measurement": "relative viability", "setting": "[18]; first compound 0.04 µM", "value": 0.668},
      {"measurement": "relative viability", "setting": "[18]; first compound 0.1265 µM", "value": 0.65},
      {"measurement": "relative viability", "setting": "[18]; first compound 0.4 µM", "value": 0.652},
      {"measurement": "relative viability", "setting": "[18]; first compound 4 µM", "value": 0.647},
      {"measurement": "relative viability", "setting": "[19]; first compound 0.04 µM", "value": 0.685},
      {"measurement": "relative viability", "setting": "[19]; first compound 0.1265 µM", "value": 0.629},
      {"measurement": "relative viability", "setting": "[19]; first compound 0.4 µM", "value": 0.687},
      {"measurement": "relative viability", "setting": "[19]; first compound 4 µM", "value": 0.588},
      {"measurement": "relative viability", "setting": "[20]; first compound 0.04 µM", "value": 0.115},
      {"measurement": "relative viability", "setting": "[20]; first compound 0.1265 µM", "value": 0.262},
      {"measurement": "relative viability", "setting": "[20]; first compound 0.4 µM", "value": 0.197},
      {"measurement": "relative viability", "setting": "[20]; first compound 4 µM", "value": 0.198},
      {"measurement": "relative viability", "setting": "[21]; first compound 0.04 µM", "value": 0.412},
      {"measurement": "relative viability", "setting": "[21]; first compound 0.1265 µM", "value": 0.444},
      {"measurement": "relative viability", "setting": "[21]; first compound 0.4 µM", "value": 0.414},
      {"measurement": "relative viability", "setting": "[21]; first compound 4 µM", "value": 0.428},
      {"measurement": "relative viability", "setting": "[22]; first compound 0.1265 µM", "value": 0.69},
      {"measurement": "relative viability", "setting": "[22]; first compound 0.4 µM", "value": 0.636},
      {"measurement": "relative viability", "setting": "[22]; first compound 4 µM", "value": 0.854},
      {"measurement": "relative viability", "setting": "[23]; first compound 0.04 µM", "value": 0.472},
      {"measurement": "relative viability", "setting": "[23]; first compound 0.1265 µM", "value": 0.402},
      {"measurement": "relative viability", "setting": "[23]; first compound 0.4 µM", "value": 0.451},
      {"measurement": "relative viability", "setting": "[23]; first compound 4 µM", "value": 0.29}
    ]}
  ]
}
